ChEMBL document CHEMBL4304769, “Discovery of Potent and Orally Bioavailable Inverse Agonists of the Retinoic Acid Receptor-Related Orphan Receptor C2” (ACS Med Chem Lett, 2019)

Test: in vivo
Conditions: Wistar Han, rat, po, 2 mg/kg

bioavailability at 24 h | SMILES
19% | CCS(=O)(=O)c1ccc(C(NC(C)=O)C(=O)Nc2cc(-c3cc(C#N)cc(F)c3OC)cs2)cc1 (racemic)
5% | CCS(=O)(=O)c1ccc(C(NC(=O)Cc2ccccc2)C(=O)Nc2ccc(C(O)(C(F)(F)F)C(F)(F)F)cc2)cc1 (configuration not stated)

Test: in vitro
Conditions: human, Caco-2

Papp | SMILES
0.3 ×10⁻⁶ cm/s | CCS(=O)(=O)c1ccc(C(NC(C)=O)C(=O)Nc2cc(-c3cc(C#N)cc(F)c3OC)cs2)cc1 (racemic)

Test: physchem
Conditions: 1-octanol/PBS buffer, pH 7.4

SMILES | logD
CCS(=O)(=O)c1ccc(CC(=O)Nc2ccc([C@H](O)C(F)(F)F)cc2)cc1 | 2.1
CCS(=O)(=O)c1ccc(C(NC(=O)CC(C)(C)O)C(=O)Nc2ccc(C(O)(C(F)(F)F)C(F)(F)F)cc2)cc1 (configuration not stated) | 3.3
CCS(=O)(=O)c1ccc(C(NC(=O)c2ccccc2)C(=O)Nc2ccc(C(O)(C(F)(F)F)C(F)(F)F)cc2)cc1 (configuration not stated) | > 4
CCS(=O)(=O)c1ccc(C(N)C(=O)Nc2ccc(C(O)(C(F)(F)F)C(F)(F)F)cc2)cc1 (configuration not stated) | 2.8
CCS(=O)(=O)c1ccc(CC(=O)Nc2ccc(-c3cccc(Cl)c3)cc2)cc1 | > 4
CCS(=O)(=O)c1ccc(CC(=O)Nc2ccc(C(O)(C(F)(F)F)C(F)(F)F)cc2)cc1 | 3.6
CCS(=O)(=O)c1ccc(CC(=O)Nc2cc(-c3cccc(Cl)c3)cs2)cc1 | > 4.1
CCS(=O)(=O)c1ccc(C(NC(=O)OC)C(=O)Nc2ccc(C(O)(C(F)(F)F)C(F)(F)F)cc2)cc1 (configuration not stated) | 3.6
CCS(=O)(=O)c1ccc(CC(=O)Nc2ccc(C(C)C)cc2)cc1 | 3.5
CCS(=O)(=O)c1ccc(CC(=O)Nc2cccc(-c3cccc(Cl)c3)c2)cc1 | > 4
CCS(=O)(=O)c1ccc(CC(=O)Nc2ccc(C(C)(C)C#N)cc2)cc1 | 2.5
CCS(=O)(=O)c1ccc(CC(=O)Nc2ccc(C(C(F)(F)F)C(F)(F)F)cc2)cc1 | 3.9
CCS(=O)(=O)c1ccc(C(NS(C)(=O)=O)C(=O)Nc2ccc(C(O)(C(F)(F)F)C(F)(F)F)cc2)cc1 (configuration not stated) | 2.7
CCS(=O)(=O)c1ccc(CC(=O)Nc2ccc(C(OC)(C(F)(F)F)C(F)(F)F)cc2)cc1 | 4

More lines, now with the values ahead:

logD | SMILES
3.2 | CCS(=O)(=O)c1ccc(C(NC(=O)NC)C(=O)Nc2ccc(C(O)(C(F)(F)F)C(F)(F)F)cc2)cc1 (configuration not stated)
> 4 | CCS(=O)(=O)c1ccc(C(NC(=O)CC(C)C)C(=O)Nc2ccc(C(O)(C(F)(F)F)C(F)(F)F)cc2)cc1 (configuration not stated)
> 4 | CCS(=O)(=O)c1ccc(C(NC(=O)CCc2ccccc2)C(=O)Nc2ccc(C(O)(C(F)(F)F)C(F)(F)F)cc2)cc1 (configuration not stated)
2.5 | CCS(=O)(=O)c1ccc(C(NC(=O)Cc2cccnn2)C(=O)Nc2ccc(C(O)(C(F)(F)F)C(F)(F)F)cc2)cc1 (configuration not stated)
2.9 | CCS(=O)(=O)c1ccc(C(NC(=O)Cc2ccnnc2)C(=O)Nc2ccc(C(O)(C(F)(F)F)C(F)(F)F)cc2)cc1 (configuration not stated)
3.3 | CCS(=O)(=O)c1ccc(C(NC(=O)Cc2ccccn2)C(=O)Nc2ccc(C(O)(C(F)(F)F)C(F)(F)F)cc2)cc1 (configuration not stated)
2.8 | CCS(=O)(=O)c1ccc(C(NC(=O)Cc2ccncn2)C(=O)Nc2ccc(C(O)(C(F)(F)F)C(F)(F)F)cc2)cc1 (configuration not stated)
4 | CCS(=O)(=O)c1ccc(C(NC(=O)Cc2ccccc2)C(=O)Nc2ccc(C(O)(C(F)(F)F)C(F)(F)F)cc2)cc1 (configuration not stated)

Test: in vivo
Conditions: Wistar Han, rat, iv, 1 mg/kg

Vd at 24 h | SMILES
0.34 L/kg | CCS(=O)(=O)c1ccc(C(NC(C)=O)C(=O)Nc2cc(-c3cc(C#N)cc(F)c3OC)cs2)cc1 (racemic)
10.2 L/kg | CCS(=O)(=O)c1ccc(C(NC(=O)Cc2ccccc2)C(=O)Nc2ccc(C(O)(C(F)(F)F)C(F)(F)F)cc2)cc1 (configuration not stated)
